Publication PMC7926936, “YM155 Inhibits NleB and SseK Arginine Glycosyltransferase Activity” (Pathogens, 2021)

Tests used:
[1] = biological target: NleB (Citrobacter rodentium, UniProt A0A482PDI9); test: biochemical
[2] = biological target: SseK1 (Salmonella enterica, UniProt A0A0H3NK84); test: biochemical
Sequence of SseK1 (A0A0H3NK84 whole entry, looked up): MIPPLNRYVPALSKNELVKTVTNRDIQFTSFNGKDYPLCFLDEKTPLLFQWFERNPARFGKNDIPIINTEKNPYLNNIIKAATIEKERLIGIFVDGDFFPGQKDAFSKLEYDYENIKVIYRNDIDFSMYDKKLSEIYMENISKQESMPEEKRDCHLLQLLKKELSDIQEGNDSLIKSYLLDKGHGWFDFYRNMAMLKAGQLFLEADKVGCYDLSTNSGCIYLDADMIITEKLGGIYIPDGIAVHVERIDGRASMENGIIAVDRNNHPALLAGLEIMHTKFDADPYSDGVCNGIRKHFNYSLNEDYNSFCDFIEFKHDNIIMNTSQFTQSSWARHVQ

Sequence of NleB (A0A482PDI9 whole entry, looked up): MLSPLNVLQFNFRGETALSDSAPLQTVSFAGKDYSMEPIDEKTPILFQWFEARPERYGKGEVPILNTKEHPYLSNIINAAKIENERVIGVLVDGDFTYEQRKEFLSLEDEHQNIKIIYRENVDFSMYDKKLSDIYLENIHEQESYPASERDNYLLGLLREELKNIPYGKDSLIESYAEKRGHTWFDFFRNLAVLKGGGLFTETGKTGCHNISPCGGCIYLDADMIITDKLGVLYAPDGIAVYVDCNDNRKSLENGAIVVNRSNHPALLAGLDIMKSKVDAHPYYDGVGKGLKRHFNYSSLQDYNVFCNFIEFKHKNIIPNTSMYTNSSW

COCCn1c2c([n+](Cc3cnccn3)c1C)C(=O)c1ccccc1C2=O [YM155]
IC50 [1]: ~2 µM | IC50 [2]: ~2 µM
